Among the data in US20240174680A1, “CDK2 INHIBITORS AND METHODS OF USING THE SAME” (Cedilla Therapeutics, Inc., priority 2021, published 2024) are IC50 values, retold here.

In the assay the target is CDK2/Cyclin E1 (Homo sapiens, UniProt P24941). Kind of assay: CDK2/Cyclin E1 Caliper LabChip EZ Reader mobility shift assay. It counts as biochemical. Set-up: purchased Eurofins 14-475. The conditions noted are these: read-out: Caliper Assay (CDK2/CCNE1): IC50. As to the method:
Inhibition of CDK2/Cyclin E1 activity in the presence of compounds of the present disclosure was evaluated using a Caliper LabChip® EZ Reader mobility shift assay. In the assay, CDK2/Cyclin E1 (Eurofins, 14-475) catalyzed the phosphorylation of a fluorescently tagged peptide 5-FAM-QSPKKG-CONH2 (PerkinElmer, FL Peptide 18) which induced a difference in capillary electrophoresis mobility. The peptide substrate and product were measured, and the conversion ratio was used to determine the inhibition (as % activity and IC50 values) of CDK2/Cyclin E1. Reactions contained 50 mM HEPES pH 7.5, 10 mM MgCl2, 1 mM EDTA, 2 mM DTT, 0.01% Brij35, 0.5 mg/mL BSA, 0.1% DMSO, 2.5 nM CDK2/Cyclin E1, 100 μM ATP, and 1.5 μM fluorescent peptide substrate.
Dose titrations of inhibitors in 100% DMSO were combined with 3.25 nM CDK2/Cyclin E1 and 130 μM of ATP in reaction buffer. The mixtures were incubated for 30 minutes before the addition of fluorescent peptide substrate to initiate the kinase reaction. The final conditions were 2.5 nM CDK2/Cyclin E1, 100 μM ATP, and 1.5 μM fluorescent peptide. The reactions were stopped after 100 minutes with the addition of EDTA (400 mM final EDTA concentration). The stopped reactions were analyzed on a Caliper LabChip® EZ Reader II. The conversion ratios were normalized to yield % activity, plotted against compound concentration, and fit to a four-parameter equation to determine the IC50 for each compound.

A value given as a limit tells only on which side of the number the result lay.

As to `CCOC(=O)[C@@H]1CCCN(C(=O)[C@@H](NC(=O)[C@@H]2CN(C(=O)c3cnn(Cc4ccccc4)c3)CC23CN(C(=O)[C@H]2CC2(C)C)C3)[C@@H](C)OCC2CCCCC2)C1` [I-484], the IC50 was not above 10 nM. In the case of `CNC(=O)[C@@H](NC(=O)[C@@H]1CN(C(=O)c2scnc2C)CC12CN(C(=O)[C@H]1CC1(C)C)C2)[C@@H](C)OCC1CCCCC1` [I-160A], the IC50 lay in the range of 10 to 100 nM. With `C[C@@H](OCC1CCCCC1)[C@H](NC(=O)[C@H]1CN(C(=O)c2cnn(Cc3ccccc3)c2)CC12CN(C(=O)[C@H]1CC1(C)C)C2)C(=O)N1CCOCC1` [I-152B] the figure was 1000 to 10000 nM. The figure for `CC1(C)C[C@@H]1C(=O)N1CC2(CN(C(=O)c3cnn(Cc4ccccc4)c3)C[C@@H]2C(=O)NCCOCc2ccccc2)C1` [I-96B] is more than 10000 nM; for `CNC(=O)[C@@H](NC(=O)[C@@H]1CN(C(=O)c2cncs2)CC12CN(C(=O)[C@H]1CC1(C)C)C2)[C@@H](C)OCC1CC2CCC1C2` (stereo partly shown) [I-465] it is not above 10 nM; for `CO[C@H]1COCC[C@H]1NC(=O)[C@@H]1CN(C(=O)c2cnn(Cc3ccccc3)c2)CC12CN(C(=O)[C@H]1CC1(C)C)C2` [I-134A] it is more than 10000 nM. The figure for `COC[C@H]1CCCN(C(=O)[C@@H](NC(=O)[C@@H]2CN(C(=O)c3cncs3)CC23CN(C(=O)[C@H]2CC2(C)C)C3)[C@@H](C)O[C@@H](C)C2CCCCC2)C1` [I-467] is not above 10 nM; for `C[C@@H](OCC12CCC(CC1)OC2)[C@H](NC(=O)[C@@H]1CN(C(=O)c2cncs2)CC12CN(C(=O)[C@H]1CC1(C)C)C2)C(=O)N1CCC2(CC1)CC2` [I-458] it is not above 10 nM.

For `C[C@@H](OCC12CCC(CC1)OC2)[C@H](NC(=O)[C@@H]1CN(C(=O)c2cncs2)CC12CN(C(=O)[C@H]1CC1(C)C)C2)C(=O)N1CCC(OC(F)(F)F)CC1` [I-457], the IC50 was 10 to 100 nM. The figure for `C[C@@H](OCC1CCCCC1)[C@H](NC(=O)[C@@H]1CN(C(=O)c2cnn(Cc3ccccc3)c2)CC12CN(C(=O)[C@H]1CC1(C)C)C2)C(=O)NCC1(C(=O)O)CC1` [I-474] is not above 10 nM; for `C[C@@H](OCc1ccccc1)[C@H](NC(=O)[C@@H]1CN(C(=O)c2cncs2)CC12CN(C(=O)[C@H]1CC1(C)C)C2)C(=O)N(C)C` [I-416] it is 10 to 100 nM. With `CNC(=O)[C@@H](NC(=O)[C@H]1CN(C(=O)c2nccs2)CC12CN(C(=O)[C@H]1CC1(C)C)C2)[C@@H](C)OCC1CCCCC1` [I-146] the figure was more than 10000 nM.

Take `Cc1cc(C(=O)N2CC(C(=O)N[C@H](C(=O)N3CCCCC3)[C@@H](C)OCC3CCCCC3)C3(C2)CN(C(=O)[C@H]2CC2(C)C)C3)[nH]n1` (stereo partly shown) [I-264]: the IC50 was in the range of 1000 to 10000 nM. The figure for `C[C@@H](OCC1CCCCC1)[C@H](NC(=O)[C@@H]1CN(C(=O)c2cncs2)CC12CN(C(=O)[C@H]1CC1(C)C)C2)C(=O)N1CCC(c2cnc[nH]2)CC1` [I-406] is not above 10 nM. Turning to `CNC(=O)[C@@H](NC(=O)[C@@H]1CN(C(=O)c2scnc2C2CCCC2)CC12CN(C(=O)[C@H]1CC1(C)C)C2)[C@@H](C)OCC1CCCCC1` [I-224B], the IC50 is more than 10000 nM. The figure for `CNC(=O)[C@H](CCCC1CCCCC1)NC(=O)[C@H]1CN(C(=O)c2cnn(Cc3ccccc3)c2)CC12CN(C(=O)[C@H]1CC1(C)C)C2` [I-155B] is 1000 to 10000 nM; for `C[C@@H](OCC1CCCCC1)[C@@H](CO)NC(=O)[C@@H]1CN(C(=O)c2cncs2)CC12CN(C(=O)[C@H]1CC1(C)C)C2` [I-307] it is 10 to 100 nM.

With `CNC(=O)[C@@H](NC(=O)[C@@H]1CN(C(=O)c2cnn(Cc3ccccc3)c2)CC12CN(C(=O)CC1(CO)CC1)C2)[C@@H](C)OCc1ccccc1` [I-92A], the IC50 was more than 10000 nM. The figure for `CNC(=O)[C@@H](NC(=O)[C@@H]1CN(C(=O)c2cnn(Cc3ccccc3)c2)CC12CN(C(=O)[C@H]1CC1(C)C)C2)[C@@H](C)OCc1ccncc1` [I-244] is 1000 to 10000 nM; for `CNC(=O)[C@@H](NC(=O)[C@]1(C)CN(C(=O)c2cnn(Cc3ccccc3)c2)CC12CN(C(=O)[C@H]1CC1(C)C)C2)[C@@H](C)OCC1CCCCC1` [I-499A] it is 1000 to 10000 nM.

Regarding `CNC(=O)[C@@H](NC(=O)[C@@H]1CN(C(=O)c2cnn(CC3CCN(C)CC3)c2)CC12CN(C(=O)[C@H]1CC1(C)C)C2)[C@@H](C)OCc1ccccc1` [I-23A], the IC50 was 1000 to 10000 nM. The figure for `CNC(=O)[C@@H](NC(=O)[C@H]1CN(C(=O)c2cnc(CC3CC3)s2)CC12CN(C(=O)[C@H]1CC1(C)C)C2)[C@@H](C)OCC1CCCCC1` [I-177B] is 1000 to 10000 nM.

As to `CNC(=O)[C@@H](NC(=O)[C@@H]1CN(C(=O)c2cncs2)CC12CN(C(=O)[C@H]1CC1(C)C)C2)[C@H](O)CC1CCCCC1` [I-379], the IC50 is more than 10000 nM.

For `CNC(=O)[C@@H](NC(=O)[C@H]1CN(C(=O)C2CCNC2)CC12CN(C(=O)[C@H]1CC1(C)C)C2)[C@@H](C)OCc1ccccc1` (stereo partly shown) [I-70B], the IC50 was more than 10000 nM. With `CNC(=O)[C@@H](NC(=O)[C@@H]1CN(C(=O)c2cnn(Cc3ccccc3)c2)CC12CN(C(=O)[C@H]1CC1(C)C)C2)C(C)(C)OCc1ccccc1` [I-393] the figure was 10 to 100 nM. Regarding `CNC(=O)[C@@H](NC(=O)[C@@H]1CN(C(=O)c2cnn(CC3CCNCC3)c2)CC12CN(C(=O)[C@H]1CC1(C)C)C2)[C@@H](C)OCc1ccccc1` [I-19A], the IC50 is 100 to 1000 nM. The figure for `C[C@@H](OCC1CCC(F)(F)CC1)[C@H](NC(=O)[C@@H]1CN(C(=O)c2cnn(Cc3ccc(F)cc3)c2)CC12CN(C(=O)[C@H]1CC1(C)C)C2)C(=O)N1CCC(F)(F)CC1` [I-164A] is not above 10 nM. The figure for `CNC(=O)[C@@H](NC(=O)[C@H]1CN(C(=O)c2cncs2)CC12CN(C(=O)C(C)(C)C)C2)[C@@H](C)OCC1CCCCC1` [I-186B] is more than 10000 nM. Regarding `C[C@@H](OCC1CCC(F)(F)CC1)[C@H](NC(=O)C1CN(C(=O)c2cncs2)CC12CN(C(=O)[C@H]1CC1(C)C)C2)C(=O)N1CCC(OC(F)(F)F)CC1` (stereo partly shown) [I-394], the IC50 is not above 10 nM. The figure for `CNC(=O)[C@@H](NC(=O)[C@@H]1CN(C(=O)c2cncs2)CC12CN(C(=O)[C@H]1CC1(C)C)C2)[C@@H](C)OCC1CC2CCC1O2` (stereo partly shown) [I-462] is 100 to 1000 nM; for `CNC(=O)[C@@H](NC(=O)[C@@H]1CN(C(=O)c2n[nH]c3ccccc23)CC12CN(C(=O)[C@H]1CC1(C)C)C2)[C@@H](C)OCc1ccccc1` [I-112A] it is 1000 to 10000 nM; for `CNC(=O)[C@@H](NC(=O)[C@@H]1CN(C(=O)c2cncs2)CC12CN(C(=O)[C@H]1CC1(C)C)C2)[C@@H](C)OCC1CCCC2(CC2)C1` (stereo partly shown) [I-370] it is not above 10 nM. The figure for `CNC(=O)[C@@H](NC(=O)[C@H]1CN(C(=O)c2cnn(Cc3ccccc3)c2)CC12CN(C(=O)[C@H]1CC1(C)C)C2)[C@@H](C)OCC1CCC(C(F)(F)F)CC1` (stereo partly shown) [I-141B] is 100 to 1000 nM; for `CNC(=O)[C@@H](NC(=O)C1(F)CN(C(=O)c2cnn(Cc3ccccc3)c2)CC12CN(C(=O)[C@H]1CC1(C)C)C2)[C@@H](C)OCc1ccccc1` (stereo partly shown) [I-500] it is 100 to 1000 nM; for `CC1(C)C[C@@H]1C(=O)N1CC2(CN(C(=O)c3cnn(Cc4ccccc4)c3)C[C@H]2C(=O)NCCOCc2ccccc2)C1` [I-96A] it is 100 to 1000 nM.

In the case of `CNC(=O)[C@H](CCCc1ccccc1)NC(=O)[C@H]1CN(C(=O)c2cnn(Cc3ccccc3)c2)CC12CN(C(=O)[C@H]1CC1(C)C)C2` [I-101B], the IC50 was more than 10000 nM. With `CC1(C)C[C@@H]1C(=O)N1CC2(CN(C(=O)c3cnn(Cc4ccccc4)c3)C[C@@H]2C(=O)N[C@@H]2CC[C@@H]2O)C1` [I-201A] the figure was more than 10000 nM.
